From patent publication US20240368694A1 (priority 2021, published 2024)

Columns and labels:
[1] = test system: serum interleukins IL1β, IL-8, IL-13, tumor necrosis factor or interferon-gamma; conditions: pigs, 3.3-3.8 ppm DON in feed (Pasternak et al. 2018); cited from earlier work
[2] = test system: insulin like growth factor 1 (IGF1); conditions: serum levels of growth hormones (Wang et al. 2019; Wu et al. 2013, 2015); cited from earlier work
[3] = pigs, cited from earlier work
[4] = test system: ssc-miR-16, ssc-miR-128, ssc-miR-205 and ssc-miR-451 in serum; set-up: species or system Sus scrofa; conditions: in vivo
miRNAs in serum = test system: miRNAs in serum; set-up: species or system Sus scrofa; conditions: in vivo
[5] = test system: miRNA expression profiles in liver and jejunum; set-up: species or system Sus scrofa; conditions: in vivo

Question: With `CC1=C[C@H]2O[C@@H]3[C@H](O)C[C@](C)([C@@]2(CO)[C@H](O)C1=O)[C@]31CO1` [DON, (3α,7α)-3,7,15-trihydroxy-12,13-epoxytrichothec-9-en-8-one] as the compound, how does the “effect on serum interleukins IL1β, IL-8, IL-13, tumor necrosis factor or interferon-gamma” value [1] read?
Answer: Its value is “had no effect”.

Question: What about the “dietary DON concentrations at which a decrease of serum IGF1 was reported” value [2] of the same compound?
Answer: Its value is ≥ 3 ppm.

Question: And the “doses of DON in feed starting from which feed consumption and weight gain decrease” value ([3]; EFSA summary of multiple feeding trials)?
Answer: The value was 0.6-2.0 ppm.

Question: What about the “effect on body weight at 3 ppm DON” value ([3]; exposure to 3 ppm DON (Grenier et al. 2011, 2013)) of the same compound?
Answer: The value was “does not necessarily result in significant effects on body weight”.

Question: What about the “ssc-miR-16 normalized Cq-value log 2 fold change in the DON groups compared to the Control” value [4] of the same compound?
Answer: The value was “increased”.

Question: And the “ssc-miR-16 qPCR log2 fold change, DON_high vs Control” value [4]?
Answer: Its value is 2.227.

Question: And the “ssc-miR-16 qPCR log2 fold change, DON_low vs Control” value [4]?
Answer: Its value is 3.504.

Question: What about the “ssc-miR-128 normalized Cq-value log 2 fold change in the DON groups compared to the Control” value [4] of the same compound?
Answer: Its value is “increased”.

Question: And the “ssc-miR-128 qPCR log2 fold change, DON_high vs Control” value [4]?
Answer: Its value is 1.879.

Question: And the “ssc-miR-128 qPCR log2 fold change, DON_low vs Control” value [4]?
Answer: Its value is 3.885.

Question: What about the “ssc-miR-205 normalized Cq-value log 2 fold change in the DON groups compared to the Control” value [4] of the same compound?
Answer: Its value is “increased”.

Question: And the “ssc-miR-205 qPCR log2 fold change, DON_high vs Control” value [4]?
Answer: The value was 2.455.

Question: And the “ssc-miR-205 qPCR log2 fold change, DON_low vs Control” value [4]?
Answer: The value was 4.973.

Question: And the “ssc-miR-451 normalized Cq-value log 2 fold change in the DON groups compared to the Control” value [4]?
Answer: Its value is “increased”.

Question: And the “ssc-miR-451 qPCR log2 fold change, DON_high vs Control” value [4]?
Answer: The value was 1.835.

Question: What about the “ssc-miR-451 qPCR log2 fold change, DON_low vs Control” value [4] of the same compound?
Answer: Its value is 2.663.

Question: And the “number of serum miRNAs significantly altered in both DON low and DON high” value (miRNAs in serum)?
Answer: Its value is “eight”.

Question: What about the “number of serum miRNAs significantly altered, DON high vs Control” value (miRNAs in serum) of the same compound?
Answer: Its value is 16.

Question: And the “number of serum miRNAs significantly altered, DON low vs Control” value (miRNAs in serum)?
Answer: Its value is 15.

Question: What about the “ssc-let-7a Log2 fold vs Control, DON high” value (miRNAs in serum) of the same compound?
Answer: Its value is −0.502.

Question: What about the “ssc-let-7a Log2 fold vs Control, DON low” value (miRNAs in serum) of the same compound?
Answer: Its value is “n.s”.

Question: And the “ssc-let-7f-5p Log2 fold vs Control, DON high” value (miRNAs in serum)?
Answer: The value was −0.503.

Question: What about the “ssc-let-7f-5p Log2 fold vs Control, DON low” value (miRNAs in serum) of the same compound?
Answer: Its value is “n.s”.

Question: What about the “ssc-let-7g Log2 fold vs Control, DON high” value (miRNAs in serum) of the same compound?
Answer: The value was 0.662.

Question: What about the “ssc-let-7g Log2 fold vs Control, DON low” value (miRNAs in serum) of the same compound?
Answer: The value was “n.s”.

Question: And the “ssc-miR-10a-5p Log2 fold vs Control, DON high” value (miRNAs in serum)?
Answer: Its value is “n.s”.

Question: What about the “ssc-miR-10a-5p Log2 fold vs Control, DON low” value (miRNAs in serum) of the same compound?
Answer: Its value is −0.806.

Question: And the “ssc-miR-10b Log2 fold vs Control, DON high” value (miRNAs in serum)?
Answer: Its value is −0.754.

Question: And the “ssc-miR-10b Log2 fold vs Control, DON low” value (miRNAs in serum)?
Answer: Its value is −1.129.

Question: What about the “ssc-miR-10b direction of change in serum upon DON treatment” value (miRNAs in serum) of the same compound?
Answer: Its value is “down-regulated”.

Question: What about the “ssc-miR-16 Log2 fold vs Control, DON high” value (miRNAs in serum) of the same compound?
Answer: Its value is 0.773.

Question: What about the “ssc-miR-16 Log2 fold vs Control, DON low” value (miRNAs in serum) of the same compound?
Answer: Its value is 1.217.

Question: What about the “ssc-miR-16 direction of change in serum of DON exposed pigs” value (miRNAs in serum) of the same compound?
Answer: Its value is “up-regulated”.

Question: What about the “ssc-miR-17-5p Log2 fold vs Control, DON high” value (miRNAs in serum) of the same compound?
Answer: The value was 1.194.

Question: And the “ssc-miR-17-5p Log2 fold vs Control, DON low” value (miRNAs in serum)?
Answer: The value was “n.s”.

Question: And the “ssc-miR-92a Log2 fold vs Control, DON high” value (miRNAs in serum)?
Answer: Its value is 0.476.

Question: And the “ssc-miR-92a Log2 fold vs Control, DON low” value (miRNAs in serum)?
Answer: Its value is “n.s”.

Question: And the “ssc-miR-92b-3p Log2 fold vs Control, DON high” value (miRNAs in serum)?
Answer: The value was “n.s”.

Question: What about the “ssc-miR-92b-3p Log2 fold vs Control, DON low” value (miRNAs in serum) of the same compound?
Answer: Its value is −1.058.

Question: What about the “ssc-miR-99b Log2 fold vs Control, DON high” value (miRNAs in serum) of the same compound?
Answer: Its value is −1.226.

Question: What about the “ssc-miR-99b Log2 fold vs Control, DON low” value (miRNAs in serum) of the same compound?
Answer: Its value is −1.393.

Question: What about the “ssc-miR-99b direction of change in serum upon DON treatment” value (miRNAs in serum) of the same compound?
Answer: The value was “down-regulated”.

Question: And the “ssc-miR-103 Log2 fold vs Control, DON high” value (miRNAs in serum)?
Answer: Its value is −0.630.

Question: And the “ssc-miR-103 Log2 fold vs Control, DON low” value (miRNAs in serum)?
Answer: The value was “n.s”.

Question: And the “ssc-miR-107 Log2 fold vs Control, DON high” value (miRNAs in serum)?
Answer: The value was −0.619.

Question: What about the “ssc-miR-107 Log2 fold vs Control, DON low” value (miRNAs in serum) of the same compound?
Answer: Its value is “n.s”.

Question: And the “ssc-miR-126-5p Log2 fold vs Control, DON high” value (miRNAs in serum)?
Answer: The value was “n.s”.

Question: What about the “ssc-miR-126-5p Log2 fold vs Control, DON low” value (miRNAs in serum) of the same compound?
Answer: Its value is −1.298.

Question: What about the “ssc-miR-128 Log2 fold vs Control, DON high” value (miRNAs in serum) of the same compound?
Answer: The value was 0.887.

Question: And the “ssc-miR-128 Log2 fold vs Control, DON low” value (miRNAs in serum)?
Answer: The value was 1.124.

Question: And the “ssc-miR-128 direction of change in serum of DON exposed pigs” value (miRNAs in serum)?
Answer: The value was “up-regulated”.

Question: What about the “ssc-miR-148a-3p Log2 fold vs Control, DON high” value (miRNAs in serum) of the same compound?
Answer: The value was 0.521.

Question: And the “ssc-miR-148a-3p Log2 fold vs Control, DON low” value (miRNAs in serum)?
Answer: The value was “n.s”.

Question: And the “ssc-miR-192 Log2 fold vs Control, DON high” value (miRNAs in serum)?
Answer: The value was −0.928.

Question: What about the “ssc-miR-192 Log2 fold vs Control, DON low” value (miRNAs in serum) of the same compound?
Answer: Its value is −1.133.

Question: What about the “ssc-miR-192 direction of change in serum upon DON treatment” value (miRNAs in serum) of the same compound?
Answer: The value was “down-regulated”.

Question: And the “ssc-miR-205 Log2 fold vs Control, DON high” value (miRNAs in serum)?
Answer: The value was 5.102.

Question: And the “ssc-miR-205 Log2 fold vs Control, DON low” value (miRNAs in serum)?
Answer: Its value is 5.774.

Question: And the “ssc-miR-205 direction of change in serum of DON exposed pigs” value (miRNAs in serum)?
Answer: Its value is “up-regulated”.

Question: What about the “ssc-miR-339-5p Log2 fold vs Control, DON high” value (miRNAs in serum) of the same compound?
Answer: The value was “n.s”.

Question: What about the “ssc-miR-339-5p Log2 fold vs Control, DON low” value (miRNAs in serum) of the same compound?
Answer: Its value is 1.346.

Question: What about the “ssc-miR-339 Log2 fold vs Control, DON high” value (miRNAs in serum) of the same compound?
Answer: Its value is “n.s”.

Question: What about the “ssc-miR-339 Log2 fold vs Control, DON low” value (miRNAs in serum) of the same compound?
Answer: The value was 1.345.

Question: And the “ssc-miR-361-3p Log2 fold vs Control, DON high” value (miRNAs in serum)?
Answer: Its value is “n.s”.

Question: What about the “ssc-miR-361-3p Log2 fold vs Control, DON low” value (miRNAs in serum) of the same compound?
Answer: Its value is 2.023.

Question: And the “ssc-miR-374a-3p Log2 fold vs Control, DON high” value (miRNAs in serum)?
Answer: The value was −1.443.

Question: What about the “ssc-miR-374a-3p Log2 fold vs Control, DON low” value (miRNAs in serum) of the same compound?
Answer: The value was −1.271.

Question: What about the “ssc-miR-374a-3p direction of change in serum upon DON treatment” value (miRNAs in serum) of the same compound?
Answer: Its value is “down-regulated”.

Question: What about the “ssc-miR-451 Log2 fold vs Control, DON high” value (miRNAs in serum) of the same compound?
Answer: The value was 0.808.

Question: What about the “ssc-miR-451 Log2 fold vs Control, DON low” value (miRNAs in serum) of the same compound?
Answer: Its value is 1.375.

Question: And the “ssc-miR-451 direction of change in serum of DON exposed pigs” value (miRNAs in serum)?
Answer: Its value is “up-regulated”.

Question: What about the “ssc-miR-1388 Log2 fold vs Control, DON high” value (miRNAs in serum) of the same compound?
Answer: The value was “n.s”.

Question: And the “ssc-miR-1388 Log2 fold vs Control, DON low” value (miRNAs in serum)?
Answer: The value was −1.281.

Question: And the “differentially expressed miRNAs in liver, Control vs DON high” value [5]?
Answer: The value was “one differentially expressed miRNA, namely ssc-miR-10b”.

Question: And the “differentially expressed miRNAs in tissues, Control vs DON low” value [5]?
Answer: The value was “no differentially expressed miRNAs”.

Question: What about the “effect on the miRNA expression profiles in liver and jejunum” value [5] of the same compound?
Answer: The value was “did not exhibit a strong effect”.
